In brackets after ≈: the same amount, converted by molar mass.
Assays:
M. tuberculosis = test: Mycobacteria susceptibility testing, Microplate Alamar Blue Assay, Mtu MIC; assay type: cell-based, Mycobacterium tuberculosis (Mtu); details: for MIC: Mycobacterium tuberculosis
Eco-tolC = test: Bacterial susceptibility testing in liquid media, Eco-tolC MIC; details: for MIC: Escherichia coli, read-out: Eco-tolC MIC
From the text: (§1) Compounds may be tested for antimicrobial activity by susceptibility testing in liquid media. Compounds may be dissolved in dimethylsulfoxide and tested in 10 doubling dilutions in the susceptibility assays. The organisms used in the assay may be grown overnight on suitable agar media and then suspended in a liquid medium appropriate for the growth of the organism. The suspension can be a 0.5 McFarland and a further 1 in 10 dilution can be made into the same liquid medium to prepare the final organism suspension in 100 μL. Plates can be incubated under appropriate conditions at 37° C. for 24 hrs prior to reading.

Spn548 = test: Bacterial susceptibility testing in liquid media, Spn548 MIC; details: Streptococcus pneumoniae, 24 h, read-out: Spn548 Mean MIC
From the text: as §1

Msm. GyrB = molecular target: T1, Msm. GyrB (Mycolicibacterium smegmatis, UniProt A0QNE0); test: Msmegmatis GyrB enzyme assay (ATPase, malachite green phosphate detection); assay type: biochemical; details: read-out: Msm_GyrB IC50
T1 construct: 15 nM Msm; GyrB, 650 μM ATP, and compound in dimethyl sulfoxide
Method: Compounds may be tested for inhibition of GyrB ATPase activity using an ammonium molybdate/malachite green-based phosphate detection assay (Lanzetta, P. A., L. J. Alvarez, P. S. Reinach, and O. A. Candia, 1979, 100: 95-97; Innova Biosciences malachite green detection kit). Assays can be performed in multi-well plates in 50 μl reactions containing: 50 mM HEPES buffer pH 7.7, 250 mM potassium glutamate, 200 mM potassium chloride, 2 mM magnesium chloride, 2% glycerol, 1 mM 1,4-Dithio-DL-threitol, 0.005% Brij-35, 15 nM Msm. GyrB, 650 μM ATP, and compound in dimethyl sulfoxide. Reactions can be quenched with 12.5 μl of ammonium molybdate/malachite green detection reagent (Pi color lock gold & accelerator mix; Innova Biosciences), followed by the addition of 5 μl of stabilizer (Innova Biosciences) after 5 min of incubation.

T1 sequence (A0QNE0 whole entry): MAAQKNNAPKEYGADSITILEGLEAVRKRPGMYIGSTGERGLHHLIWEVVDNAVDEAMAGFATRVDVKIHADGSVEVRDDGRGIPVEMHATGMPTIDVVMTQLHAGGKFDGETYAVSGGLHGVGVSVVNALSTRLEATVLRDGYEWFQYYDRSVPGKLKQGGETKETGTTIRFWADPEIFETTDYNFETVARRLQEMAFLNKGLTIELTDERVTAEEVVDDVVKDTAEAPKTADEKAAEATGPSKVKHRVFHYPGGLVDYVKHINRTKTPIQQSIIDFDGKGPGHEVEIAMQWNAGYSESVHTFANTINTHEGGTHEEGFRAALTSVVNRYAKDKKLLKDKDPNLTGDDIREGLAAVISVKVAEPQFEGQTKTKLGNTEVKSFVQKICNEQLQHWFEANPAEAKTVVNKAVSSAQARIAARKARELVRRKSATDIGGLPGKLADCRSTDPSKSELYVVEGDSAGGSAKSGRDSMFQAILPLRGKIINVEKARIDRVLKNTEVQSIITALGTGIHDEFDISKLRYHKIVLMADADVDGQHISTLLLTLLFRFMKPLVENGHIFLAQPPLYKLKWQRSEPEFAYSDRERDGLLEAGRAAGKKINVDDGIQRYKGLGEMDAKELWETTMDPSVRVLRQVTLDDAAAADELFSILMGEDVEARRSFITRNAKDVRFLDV

| SMILES | MIC (M. tuberculosis) | MIC (Eco-tolC) | MIC (Spn548) | IC50 (Msm. GyrB) | Mtu MIC (M. tuberculosis) | Eco-tolC MIC (Eco-tolC) |
| --- | --- | --- | --- | --- | --- | --- |
| C=CCNC(=O)Nc1nc2cc(-c3cnc(OC)nc3)c(C)nc2o1 [Example 16, 3-allyl-1-[6-(2-methoxypyrimidin-5-yl)-5-methyl-oxazolo[5,4-b]pyridin-2-yl]urea] | > 32 µg/mL | > 32 µg/mL | 16 µg/mL (≈ 47 µM) | 1610 nM |  |  |
| CCNC(=O)Nc1nc2cc(-c3cncnc3)c(OCc3cscn3)nc2s1 [Example 50, 1-ethyl-3-[6-pyrimidin-5-yl-5-(1,3-thiazol-4-ylmethoxy)[1,3]thiazolo[5,4-b]pyridin-2-yl]urea] | 0.25 µg/mL (≈ 0.605 µM) | 0.25 µg/mL (≈ 0.605 µM) | 0.0625 µg/mL (≈ 0.151 µM) | < 2.54 nM |  |  |
| C=CCNC(=O)Nc1nc2cc(-c3cccnc3)c(OCCOC)nc2s1 [Example 29, 1-[5-(2-methoxyethoxy)-6-pyridin-3-yl[1,3]thiazolo[5,4-b]pyridin-2-yl]-3-prop-2-en-1-ylurea] | 4 µg/mL (≈ 10.4 µM) | 1.22 µg/mL (≈ 3.16 µM) | 0.152 µg/mL (≈ 0.395 µM) |  |  |  |
| C=CCNC(=O)Nc1nc2cc(-c3cccnc3)cnc2o1 [Example 15, 1-allyl-3-(6-(pyridin-3-yl)oxazolo[5,4-b]pyridin-2-yl)urea] | > 16 µg/mL | > 64 µg/mL | 16 µg/mL (≈ 54.2 µM) | 2000 nM |  |  |
| C=CCNC(=O)Nc1nc2cc(-c3cncnc3)c(OCc3ccccn3)nc2s1 [Example 34, 1-prop-2-en-1-yl-3-[5-(pyridin-2-ylmethoxy)-6-pyrimidin-5-yl[1,3]thiazolo[5,4-b]pyridin-2-yl]urea] | 1.41 µg/mL (≈ 3.37 µM) | 1 µg/mL (≈ 2.38 µM) | 0.0625 µg/mL (≈ 0.149 µM) | 28.1 nM |  |  |
| CCNC(=O)Nc1nc2cc(-c3cncnc3)c(OC)nc2s1 [Example 56, 1-ethyl-3-(5-methoxy-6-pyrimidin-5-yl[1,3]thiazolo[5,4-b]pyridin-2-yl)urea] | 0.707 µg/mL (≈ 2.14 µM) | 0.5 µg/mL (≈ 1.51 µM) | 0.0625 µg/mL (≈ 0.189 µM) | 21.6 nM |  |  |
| CCNC(=O)Nc1nc2cc(-c3cncnc3)c(N[C@@H](C)C(=O)OCC)nc2s1 [Example 65, Ethyl N-{2-[(ethylcarbamoyl)amino]-6-pyrimidin-5-yl[1,3]thiazolo[5,4-b]pyridin-5-yl}-L-alaninate] | 0.125 µg/mL (≈ 0.301 µM) | 4 µg/mL (≈ 9.63 µM) | 0.125 µg/mL (≈ 0.301 µM) | < 2.54 nM |  |  |
| CCNC(=O)Nc1nc2cc(-c3cncnc3)c(OCCOC)nc2s1 [Example 44, 1-ethyl-3-[5-(2-methoxyethoxy)-6-pyrimidin-5-yl[1,3]thiazolo[5,4-b]pyridin-2-yl]urea] | 0.25 µg/mL (≈ 0.668 µM) | 1.17 µg/mL (≈ 3.12 µM) | 0.0731 µg/mL (≈ 0.195 µM) |  |  |  |
| CCNC(=O)Nc1nc2cc(-c3cncnc3)c(OCCOCC)nc2s1 [Example 46, 1-[5-(2-ethoxyethoxy)-6-pyrimidin-5-yl[1,3]thiazolo[5,4-b]pyridin-2-yl]-3-ethylurea] | 0.125 µg/mL (≈ 0.322 µM) | 0.25 µg/mL (≈ 0.644 µM) | 0.0625 µg/mL (≈ 0.161 µM) | 20 nM |  |  |
| CCNC(=O)Nc1nc2cc(-c3cncc(C(=O)OCC)c3)c(OCC3CCOC3)nc2s1 (stereo not shown) [Example 53, ethyl 5-{2-[(ethylcarbamoyl)amino]-5-(tetrahydrofuran-3-ylmethoxy)[1,3]thiazolo[5,4-b]pyridin-6-yl}pyridine-3-carboxylate] | 2.83 µg/mL (≈ 6 µM) | 0.5 µg/mL (≈ 1.06 µM) | 0.0625 µg/mL (≈ 0.133 µM) | 62.2 nM |  |  |
| CCNC(=O)Nc1nc2cc(-c3cncnc3)c(OC(C)C)nc2s1 [Example 73, 1-ethyl-3-[5-(1-methylethoxy)-6-pyrimidin-5-yl[1,3]thiazolo[5,4-b]pyridin-2-yl]urea] | 0.125 µg/mL (≈ 0.349 µM) |  |  | 5.2 nM |  |  |
| CCNC(=O)Nc1nc2cc(-c3ccc(C#N)nc3)c(OCC3CCOC3)nc2s1 (stereo not shown) [Example 54, 1-[6-(6-cyanopyridin-3-yl)-5-(tetrahydrofuran-3-ylmethoxy)[1,3]thiazolo[5,4-b]pyridin-2-yl]-3-ethylurea] | 0.177 µg/mL (≈ 0.417 µM) | 1 µg/mL (≈ 2.36 µM) | 0.0625 µg/mL (≈ 0.147 µM) |  |  |  |
| C=CCNC(=O)Nc1nc2cc(-c3cccnc3)cnc2s1 [Example 3, 1-allyl-3-[6-(3-pyridyl)thiazolo [5,4-b]pyridin-2-yl] urea] | 10.1 µg/mL (≈ 32.4 µM) | > 64 µg/mL | 1 µg/mL (≈ 3.21 µM) |  |  |  |
| CCNC(=O)Nc1nc2cc(-c3cccnc3)cnc2s1 [Example 5, 1-Ethyl-3-(6-pyridin-3-yl-thiazolo [5,4-b]pyridin-2-yl)-urea] |  | 8.83 µg/mL (≈ 29.5 µM) | 1.56 µg/mL (≈ 5.21 µM) |  |  |  |
| CCNC(=O)Nc1nc2cc(-c3cccnc3)c(OCC3CCOC3)nc2s1 (stereo not shown) [Example 42, 1-ethyl-3-[6-pyridin-3-yl-5-(tetrahydrofuran-3-ylmethoxy)[1,3]thiazolo[5,4-b]pyridin-2-yl]urea] | 0.42 µg/mL (≈ 1.05 µM) | 1.25 µg/mL (≈ 3.12 µM) | 0.078 µg/mL (≈ 0.195 µM) |  |  |  |
| CCNC(=O)Nc1nc2cc(-c3cncc(C#N)c3)c(OCC3CCOC3)nc2s1 (stereo not shown) [Example 57, 1-[6-(5-cyanopyridin-3-yl)-5-(tetrahydrofuran-3-ylmethoxy)[1,3]thiazolo[5,4-b]pyridin-2-yl]-3-ethylurea] | 0.25 µg/mL (≈ 0.589 µM) | 0.0625 µg/mL (≈ 0.147 µM) | 0.0625 µg/mL (≈ 0.147 µM) |  |  |  |
| CCNC(=O)Nc1nc2cc(-c3cnc(C#N)nc3)c(OC3CCOC3)nc2s1 (stereo not shown) [Example 75, 1-[6-(2-cyanopyrimidin-5-yl)-5-(tetrahydrofuran-3-yloxy)[1,3]thiazolo[5,4-b]pyridin-2-yl]-3-ethylurea] | < 0.06 µg/mL |  |  | < 2.54 nM |  |  |
| C=CCNC(=O)Nc1nc2cc(Br)c(C)nc2s1 [Example 2, 1-Allyl-3-(6-bromo-5-methyl-thiazolo [5,4-b]pyridin-2-yl)-urea] |  | 32 µg/mL (≈ 97.8 µM) | > 32 µg/mL | 2190 nM |  |  |
| CCNC(=O)Nc1nc2cc(-c3cccnc3)c(OCCOC)nc2s1 [Example 45, 1-ethyl-3-[5-(2-methoxyethoxy)-6-pyridin-3-yl[1,3]thiazolo[5,4-b]pyridin-2-yl]urea] | 1 µg/mL (≈ 2.68 µM) | 4.67 µg/mL (≈ 12.5 µM) | 0.292 µg/mL (≈ 0.781 µM) |  |  |  |
| CCNC(=O)Nc1nc2cc(-c3ccc(F)nc3)c(OC(C)C)nc2s1 [Example 74, 1-ethyl-3-[6-(6-fluoropyridin-3-yl)-5-(1-methylethoxy)[1,3]thiazolo[5,4-b]pyridin-2-yl]urea] | 1 µg/mL (≈ 2.66 µM) |  |  | 10 nM |  |  |
| CCNC(=O)Nc1nc2cc(-c3ccc(F)nc3)c(OCC3CCOC3)nc2s1 (stereo not shown) [Example 40, 1-ethyl-3-[6-(6-fluoropyridin-3-yl)-5-(tetrahydrofuran-3-ylmethoxy)[1,3]thiazolo[5,4-b]pyridin-2-yl]urea] | 0.354 µg/mL (≈ 0.847 µM) | 0.571 µg/mL (≈ 1.37 µM) | 0.0714 µg/mL (≈ 0.171 µM) |  |  |  |
| CCNC(=O)Nc1nc2cc(-c3cncc(-c4n[nH]c(=O)o4)c3)c(OCC3CCOC3)nc2s1 (stereo not shown) [Example 78, 1-ethyl-3-{6-[5-(5-oxo-4,5-dihydro-1,3,4-oxadiazol-2-yl)pyridin-3-yl]-5-(tetrahydrofuran-3-ylmethoxy)[1,3]thiazolo[5,4-b]pyridin-2-yl}urea] | 8 µg/mL (≈ 16.5 µM) |  |  | < 2.54 nM |  |  |
| CCNC(=O)Nc1nc2cc(-c3cncnc3)c(OCC3CCOC3)nc2s1 (single isomer, unassigned; isomer 1) [Example 68, 1-ethyl-3-[6-pyrimidin-5-yl-5-(tetrahydrofuran-3-ylmethoxy)[1,3]thiazolo[5,4-b]pyridin-2-yl]urea (Chiral isomer 1)] | 0.0884 µg/mL (≈ 0.221 µM) | 0.5 µg/mL (≈ 1.25 µM) | 0.125 µg/mL (≈ 0.312 µM) |  |  |  |
| CCNC(=O)Nc1nc2cc(-c3cnc(C(F)(F)F)nc3)c(OCC3CCOC3)nc2s1 (stereo not shown) [Example 77, 1-ethyl-3-{5-(tetrahydrofuran-3-ylmethoxy)-6-[2-(trifluoromethyl)pyrimidin-5-yl][1,3]thiazolo[5,4-b]pyridin-2-yl}urea] | 2.83 µg/mL (≈ 6.04 µM) |  |  | 2.9 nM |  |  |
| CCNC(=O)Nc1nc2cc(-c3cnn(C)c3)c(OCC3CCOC3)nc2s1 (stereo not shown) [Example 71, 1-ethyl-3-[6-(1-methyl-1H-pyrazol-4-yl)-5-(tetrahydrofuran-3-ylmethoxy)[1,3]thiazolo[5,4-b]pyridin-2-yl]urea] | 0.707 µg/mL (≈ 1.76 µM) | 0.5 µg/mL (≈ 1.24 µM) | 0.125 µg/mL (≈ 0.311 µM) |  |  |  |
| CCNC(=O)Nc1nc2cc(-c3cncnc3)c(OCC3CCOC3)nc2s1 (stereo not shown) [Example 36, 1-ethyl-3-[6-pyrimidin-5-yl-5-(tetrahydrofuran-3-ylmethoxy)[1,3]thiazolo[5,4-b]pyridin-2-yl]urea] | 0.0544 µg/mL (≈ 0.136 µM) | 0.125 µg/mL (≈ 0.312 µM) | 0.0625 µg/mL (≈ 0.156 µM) |  |  |  |
| C=CCNC(=O)Nc1nc2cc(-c3cccnc3)c(OCCN3CCOCC3)nc2s1 [Example 28, 1-[5-(2-morpholin-4-ylethoxy)-6-pyridin-3-yl[1,3]thiazolo[5,4-b]pyridin-2-yl]-3-prop-2-en-1-ylurea] | > 22.6 µg/mL | > 32 µg/mL | 4 µg/mL (≈ 9.08 µM) |  |  |  |
| CCNC(=O)Nc1nc2cc(-c3ccc(F)nc3)c(OC3CCOC3)nc2s1 (stereo not shown) [Example 76, 1-ethyl-3-[6-(6-fluoropyridin-3-yl)-5-(tetrahydrofuran-3-yloxy)[1,3]thiazolo[5,4-b]pyridin-2-yl]urea] | 0.5 µg/mL (≈ 1.24 µM) |  |  | 3.54 nM |  |  |
| CCNC(=O)Nc1nc2cc(-c3cncnc3)c(OCC3CCOC3)nc2s1 (single isomer, unassigned; isomer 2) [Example 69, 1-ethyl-3-[6-pyrimidin-5-yl-5-(tetrahydrofuran-3-ylmethoxy)[1,3]thiazolo[5,4-b]pyridin-2-yl]urea (Chiral isomer 2)] |  |  |  |  | 0.08839 µg/mL | 0.25 µg/mL |
| CCNC(=O)Nc1nc2cc(-c3cncc(F)c3)c(OCC3CCOC3)nc2s1 (stereo not shown) [Example 79, 1-ethyl-3-[6-(5-fluoropyridin-3-yl)-5-(tetrahydrofuran-3-ylmethoxy)[1,3]thiazolo[5,4-b]pyridin-2-yl]urea] | 0.354 µg/mL (≈ 0.847 µM) |  |  |  |  |  |

Source: patent publication US20100137303A1, “NEW COMPOUND 255” (AstraZeneca AB, priority 2008, published 2010)
